Residues, ends and D or L forms follow the SMILES beside them.
Molecular target: T1, O‐Mad2^R133A (Homo sapiens, UniProt Q13257, R133A)
T1 construct: unable to collect equivalent data for full‐length O‐Mad2^R133A; His6-DoubleStrep-TEV (N); made in house
Assay: Time-resolved NMR: O-Mad2 to C-Mad2 conversion of O-Mad2^R133A with MIM peptides
Assay type: biochemical
Details: 100 μM O-Mad2^R133A, 25°C
Protocol: FIGURE 2 NMR fingerprinting of Mad2. (a) Structural orientations of Trp75 (on the αB helix) and Trp167 (on the “safety‐belt”) in Mad2 produce distinct indole NH resonances. […] NMR spectra for O‐Mad2^R133A and “empty” C‐Mad2^L13A/R133A and C‐Mad2^R133A:Cdc20^MIM‐111‐138 are from Fischer et al. ([2022]) (c) Mad2 conversion rates vary with different MIM peptides. Conversion was traced over 24 h at 25°C using the Trp75 and Trp167 side‐chain resonances as reporters. MIM peptides were added at two‐fold molar excess to Mad2 (100 μM). Each spectrum required 12 min of acquisition time, therefore the 15 min time‐points represent the earliest spectra in the time‐resolved series. The schematics show the conformation of Mad2 as indicated by the tryptophan side‐chain resonances. A black tick marks when conversion is considered complete. NMR data for O‐Mad2^R133A with and without Cdc20^MIM‐111‐138 shown are from Fischer et al. ([2022]). In the case of full‐length Cdc20, the MIM sequence is sequestered by an auto‐inhibitory intramolecular interaction within Cdc20 itself, which prevents it from being readily accessible for binding to C‐Mad2 (Piano et al., [2021]). Conversely, isolated MIM peptides lack this auto‐inhibitory mechanism, allowing them to bind directly to C‐Mad2 without obstruction.
To understand whether Mad2 conversion times are modulated by different C‐Mad2 ligands, we used time‐resolved NMR to determine the conversion time of 100 μM O‐Mad2^R133A at 25°C. The indole NH resonances of Trp75 and Trp167 were used as reporters (Figure 2b). […] In contrast, conversion took ~24 h in the absence of Cdc20^MIM‐111‐138 peptide (Fischer et al., [2022]) (Figures 2c and S4b). […] Other MIM peptides also accelerated the O‐Mad2 to C‐Mad2 conversion. […] In “empty” C‐Mad2, the β7/β8 hairpin is displaced to expose the β6 strand for pairing with the MIM peptide (Luo et al., [2004]) (Figure S3a).
Mad2 constructs were expressed in BL21 Star (DE3) cells (Thermo Fisher Scientific), co‐transformed with a pRARE plasmid (Merck). Uniformly labeled proteins were expressed in M9 minimal media (6 g/L Na2HPO4, 3 g/L KH2PO4, 0.5 g/L NaCl) supplemented with 1.7 g/L yeast nitrogen base without NH4Cl and amino acids (Sigma Y1251). 1 g/L ^15NH4Cl and 4 g/L glucose were supplemented for ^15N labeling. For ^13C/^15N double‐labeled samples, unlabeled glucose was replaced with 3 g/L ^13C‐glucose. Protein expression was induced with 0.4 mM IPTG at 16°C overnight. All samples were purified as previously described (Luo & Yu, [2005]; Mapelli et al., [2007]) and all O‐Mad2 variants were kept at 4°C during purification to prevent conversion to C‐Mad2. Prior to all NMR experiments, proteins were dialyzed into 20 mM HEPES, pH 7.0, 100 mM NaCl, 1 mM TCEP. ^13C/^15N‐labeled samples were used for backbone assignment, and all other experimental data were acquired on ^15N‐labeled samples. Proteins were kept on ice before NMR experiments to ensure all O‐Mad2 remained in the open state. For “bound” C‐Mad2, MIM peptides were added in 1:2 molar excess to ensure complete conversion.
All peptides were synthesized by Cambridge Research Biochemicals, UK. Peptides were dialyzed into 20 mM HEPES, pH 7.0, 100 mM NaCl, and 1 mM TCEP for NMR experiments. The sequences for the peptides used in this study are: Cdc20^MIM‐111‐138 ([…]), Cdc20^MIM‐123‐137 (FDVEEAKILRLSGKP), Cdc20^MIM‐123‐152 ([…]), Cdc20^MIM‐138‐152 (QNAPEGYQNRLKVLY), Mad1^MIM‐529‐550 ([…]), and MBP1^MIM (SWYSYPPPQRAV). […]

T1 sequence (Q13257 whole entry R133A): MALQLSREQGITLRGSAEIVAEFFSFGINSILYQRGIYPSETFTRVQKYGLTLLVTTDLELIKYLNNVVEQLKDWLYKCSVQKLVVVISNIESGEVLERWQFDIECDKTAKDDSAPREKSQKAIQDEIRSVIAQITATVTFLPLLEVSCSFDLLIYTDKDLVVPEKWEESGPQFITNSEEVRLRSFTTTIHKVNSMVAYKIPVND

Molecule: CC[C@H](C)[C@H](NC(=O)[C@H](CCCCN)NC(=O)[C@H](C)NC(=O)[C@H](CCC(=O)O)NC(=O)[C@H](CCC(=O)O)NC(=O)[C@@H](NC(=O)[C@H](CC(=O)O)NC(=O)[C@@H](N)Cc1ccccc1)C(C)C)C(=O)N[C@@H](CC(C)C)C(=O)N[C@@H](CCCNC(=N)N)C(=O)N[C@@H](CC(C)C)C(=O)N[C@@H](CO)C(=O)NCC(=O)N[C@@H](CCCCN)C(=O)N1CCC[C@H]1C(=O)N[C@@H](CCC(N)=O)C(=O)N[C@@H](CC(N)=O)C(=O)N[C@@H](C)C(=O)N1CCC[C@H]1C(=O)N[C@@H](CCC(=O)O)C(=O)NCC(=O)N[C@@H](Cc1ccc(O)cc1)C(=O)N[C@@H](CCC(N)=O)C(=O)N[C@@H](CC(N)=O)C(=O)N[C@@H](CCCNC(=N)N)C(=O)N[C@@H](CC(C)C)C(=O)N[C@@H](CCCCN)C(=O)N[C@H](C(=O)N[C@@H](CC(C)C)C(=O)N[C@@H](Cc1ccc(O)cc1)C(=O)O)C(C)C [Cdc20^MIM‐123‐152] (H-FDVEEAKILRLSGKPQNAPEGYQNRLKVLY-OH; N-terminus and C-terminus assumed)
- Mad2 conversion rate/efficiency, in words (time-resolved NMR, compared with other Cdc20^MIM peptides): more efficient at triggering Mad2 conversion

Molecule: EHQKAWALNLNGFDVEEAKILRLSGKPQ [Cdc20^MIM‐111‐138, Cdc20^MIM peptide spanning Cdc20 residues 111–138]
- acceleration of O-Mad2 to C-Mad2 conversion vs absence of MIM peptide (two-fold molar excess peptide, without peptide ~24 h): ~50 fold

Molecule: QNAPEGYQNRLKVLY [Cdc20^MIM‐138‐152, peptide of Cdc20 residues 138–152]
- induction of Mad2 conversion after two hours / binding, in words (time-resolved NMR, two hours): failed to induce Mad2 conversion after two hours, and therefore alone are insufficient to bind Mad2

From article PMC11947619, “Molecular mechanism of Mad2 conformational conversion promoted by the Mad2‐interaction motif of Cdc20” (Protein Science : A Publication of the Protein Society, 2025)
